Assay results as given in patent US20250304620A1, “ANTIMICROBIAL PEPTIDE AND APPLICATION THEREOF” (priority 2023, published 2025).
≈ marks a conversion by molar mass, not a printed value. Marks after values point to notes of the source that are not given here. Non-standard residues stand in square brackets, D forms with d. Residues, ends and D or L forms follow the SMILES beside them. PEG2000 = polyethylene glycol 2000, conjugated to the N-terminus; PEG4000 = polyethylene glycol 4000, conjugated to the C-terminus; PEG200 = polyethylene glycol 200, conjugated to the C-terminus; PEG500 = polyethylene glycol 500, conjugated to the C-terminus; Phe(3,4-Cl2) = N[C@@H](Cc1ccc(Cl)c(Cl)c1)C(=O)O; Phe(4-Cl) = N[C@@H](Cc1ccc(Cl)cc1)C(=O)O; 2Nal = N[C@@H](Cc1ccc2ccccc2c1)C(=O)O; PEG1000 = polyethylene glycol 1000; Nva = CCC[C@H](N)C(=O)O

How the values were obtained:
rabbit red blood cells = type: cell-based; details: red cells of rabbit, 1 h
Method: Fresh rabbit blood ([…]) was collected and centrifuged at 500 g for 5 min, a supernatant was discarded, and red blood cells were repeatedly washed with phosphate-buffered saline (PBS, 0.01 M, pH 7.4) until the supernatant was clear. The red blood cells (RBCs) were resuspended to 10 mL, and diluted 25-fold with PBS (0.01 M, pH 7.4) to prepare a red blood cell suspension with a concentration of about 2×10^8 RBC/mL. The AMPs were subjected to gradient dilution with normal saline (0.85%, w/v, NaCl) according to a multiple dilution method, final concentrations of the SMPs were 1.95, 3.9, 7.8, 15.6, 31.3, 62.5, 125, 250, 500, 1000, and 2000 μg/mL. 100 μl of polypeptide solution was taken and added to a 96-well plate with 5 replicates for each concentration; 100 μl of rabbit blood with a red blood cell count of about 2×10^8 RBC/mL was then added to each well, the plate was incubated at 37° C. for 1 h, centrifuged at 500 g for 5 min, 100 μl of supernatant was taken and transferred to a new 96-well plate, and an optical density (OD) at a wavelength of 541 nm was measured using a microplate reader. Triton X-100 (10 mg/mL as a starting concentration, two-fold gradient dilution) was used as a positive control group. A hemolysis rate was calculated using the following formula: Hemolysis rate (%)=[(OD541 of experimental group-OD541 of negative control group)/(OD541 of positive control group−OD541 of negative control group)]×100% Specific results of the hemolysis test are shown in Table 6. Minimum hemolytic concentration (MHC): a lowest drug concentration that can cause 10% hemolysis.

[1] = test system: Staphylococcus aureus (NRS 384); experiment: microbe, parasite or virus in culture; type: cell-based
Source text: According to the Standards of Clinical and Laboratory Standards Institute (CLSI) of the USA for antimicrobial drug susceptibility test operation standards, a micronutrient serial twofold dilution method was used to determine minimum inhibitory concentrations (MICs) of all 60 peptides (S/N: LV-1˜LV-60) against Staphylococcus aureus (NRS 384). The experiment was repeated 5 times in parallel. […] An antibacterial drug Levofloxacin and an AMP Cbf-K16 (sequence of Cbf-K16: […]) were used as positive controls to evaluate the antibacterial effect of the antimicrobial peptides on Staphylococcus aureus (NRS 384).

[2] = test system: Escherichia coli ATCC 25922; experiment: Oral formulations on mice with systemic bacterial infection; type: in vivo, ICR mice; details: 5 mg/kg gavage, three times a day for 7 days, n = 10
Method: Both female and male ICR mice were used in the test, half of the female and male mice were taken and randomly assigned into groups, with 10 mice in each group, and kept in separate cages. The mice were divided into a blank control group, a negative control group, a positive control Levofloxacin group, and AMPs LV-1 to LV-30 groups. An Escherichia coli ATCC 25922 bacterial suspension was prepared, a concentration of the suspension was adjusted 1×10^7 CFU/mL for subsequent use. Except for the blank control group, all other mice were injected with the Escherichia coli suspension (0.2 mL, 1×10^7 CFU/mL), into abdominal cavity of the mice, to establish a model. After the model was successfully established, the mice were given drug immediately according to their body weights. Except for the blank control group and the negative control group, the mice in all other groups were gavaged with different compounds, three times a day for 7 consecutive days. The mice were then observed for 14 d. The death of mice in each group was observed, and survival time of the mice was recorded. Results of the effect of the oral formulations of AMPs LV-1 to LV-30 on the survival time of mice infected with Escherichia coli are shown in Table 11.

[3] = test system: Pseudomonas aeruginosa ATCC 27853; experiment: Injectable formulations on mice infected with peritonitis; type: in vivo, ICR mice; details: 5 mg/kg via tail vein, twice a day for 3 days, n = 10
Method: Both female and male ICR mice were used in the test, half of the female and male mice were taken and randomly assigned into groups, with 10 mice in each group, and kept in separate cages. The mice were divided into a blank control group, a negative control group, a positive control Levofloxacin group, and AMPs LV-1 to LV-30 groups. A bacterial suspension of Pseudomonas aeruginosa ATCC 27853 was prepared, a concentration of the suspension was adjusted 1×10^9 CFU/mL for subsequent use. Except for the blank control group, all other mice were injected with the bacterial suspension (0.2 mL, 1×10^9 CFU/mL), into abdominal cavity of the mice, to establish a model. After the model was successfully established, the mice were given drug immediately according to their body weights. Except for the blank control group and the negative control group, the mice in all other groups were administered the corresponding injectable formulations via tail vein, twice a day for 3 consecutive days. The mice were then observed for 14 d. The death of mice in each group was observed, and survival time of the mice was recorded. Results of the effect of the injectable formulations of AMPs LV-1 to LV-30 on the survival time of mice infected with Pseudomonas aeruginosa are shown in Table 10.

[4] = Staphylococcus aureus (NRS 384)

Compound | MHC (minimum hemolytic concentration, lowest concentration causing 10% hemolysis) (rabbit red blood cells) [µg/mL] | MIC against Staphylococcus aureus (NRS 384) ([1]; NRS 384) [µg/mL] | MIC against Staphylococcus aureus (NRS 384) [1, 4] [µg/mL] | also measured
CC(=O)N[C@@H](CCCNC(=N)N)C(=O)N[C@@H](CCCNC(=N)N)C(=O)N[C@@H](CC(C)C)C(=O)N[C@@H](CC(C)C)C(=O)N[C@@H](Cc1ccc2ccccc2c1)C(=O)N[C@@H](CCCCN)C(=O)N[C@@H](CC(C)C)C(=O)N[C@@H](CCCCN)C(=O)N[C@@H](Cc1ccc2ccccc2c1)C(=O)N[C@@H](CCCCN)C(=O)N[C@@H](CCCNC(=N)N)C(N)=O [LV-54] (Ac-RRLL[2Nal]KLK[2Nal]KR-NH2) | >1000 | 8 (≈ 4.86 µM) | – | –
Ac-RKLLXRLKXRK-PEG1000 [LV-58] (Ac-RKLL[2Nal]RLK[2Nal]RK-PEG1000) [polyethylene glycol 1000 conjugated to C-terminal; X=3-(2-naphthyl)-alanine] | – | – | 4 | –
CCC[C@H](NC(=O)[C@H](CCCCN)NC(=O)[C@H](CCCNC(=N)N)NC(C)=O)C(=O)N[C@@H](CCC)C(=O)N[C@@H](Cc1ccc2ccccc2c1)C(=O)N[C@@H](CCCNC(=N)N)C(=O)N[C@@H](CCC)C(=O)N[C@@H](CCCCN)C(=O)N[C@@H](Cc1ccc2ccccc2c1)C(=O)N[C@@H](CCCNC(=N)N)C(=O)N[C@@H](CCCCN)C(N)=O [LV-43] (Ac-RK[Nva][Nva][2Nal]R[Nva]K[2Nal]RK-NH2) | >1000 | 8 (≈ 4.99 µM) | – | –
Ac-RKLLXRLKXRK-PEG4000 [LV-60] (Ac-RKLL[2Nal]RLK[2Nal]RK-PEG4000) [polyethylene glycol 4000 conjugated to C-terminal; X=3-(2-naphthyl)-alanine] | – | – | 8 | –
CC(=O)N[C@@H](CCCNC(=N)N)C(=O)N[C@@H](CCCNC(=N)N)C(=O)N[C@@H](CC(C)C)C(=O)N[C@@H](CC(C)C)C(=O)N[C@@H](Cc1ccc2ccccc2c1)C(=O)N[C@@H](CCCNC(=N)N)C(=O)N[C@@H](CC(C)C)C(=O)N[C@@H](CCCNC(=N)N)C(=O)N[C@@H](Cc1ccc2ccccc2c1)C(=O)N[C@@H](CCCNC(=N)N)C(=O)N[C@@H](CCCNC(=N)N)C(N)=O [LV-31] (Ac-RRLL[2Nal]RLR[2Nal]RR-NH2) | >1000 | 4 (≈ 2.31 µM) | – | –
CC(=O)N[C@@H](CCCNC(=N)N)C(=O)N[C@@H](CCCCN)C(=O)N[C@@H](CC(C)C)C(=O)N[C@@H](CC(C)C)C(=O)N[C@@H](Cc1ccc(Cl)cc1)C(=O)N[C@@H](CCCCN)C(=O)N[C@@H](CC(C)C)C(=O)N[C@@H](CCCCN)C(=O)N[C@@H](Cc1ccc(Cl)cc1)C(=O)N[C@@H](CCCCN)C(=O)N[C@@H](CCCNC(=N)N)C(N)=O [LV-37] (Ac-RKLL[Phe(4-Cl)]KLK[Phe(4-Cl)]KR-NH2) | >1000 | 4 (≈ 2.52 µM) | – | –
CC(=O)N[C@@H](CCCNC(=N)N)C(=O)N[C@@H](CCCCN)C(=O)N[C@@H](CC(C)C)C(=O)N[C@@H](CC(C)C)C(=O)N[C@@H](Cc1ccc(Cl)c(Cl)c1)C(=O)N[C@@H](CCCCN)C(=O)N[C@@H](CC(C)C)C(=O)N[C@@H](CCCCN)C(=O)N[C@@H](Cc1ccc(Cl)c(Cl)c1)C(=O)N[C@@H](CCCCN)C(=O)N[C@@H](CCCNC(=N)N)C(N)=O [LV-38] (Ac-RKLL[Phe(3,4-Cl2)]KLK[Phe(3,4-Cl2)]KR-NH2) | >1000 | 8 (≈ 4.83 µM) | – | –
Ac-RKLLXRLKXRK-PEG500 [LV-57] (Ac-RKLL[2Nal]RLK[2Nal]RK-PEG500) [polyethylene glycol 500 conjugated to C-terminal; X=3-(2-naphthyl)-alanine] | – | – | 8 | –
PEG2000-RKLLXRLKXRK-NH2 [LV-59] (PEG2000-RKLL[2Nal]RLK[2Nal]RK-NH2) [polyethylene glycol 2000 conjugated to N-terminal; X=3-(2-naphthyl)-alanine] | – | – | 4 | –
CC(=O)N[C@@H](CCCCN)C(=O)N[C@@H](CCCCN)C(=O)N[C@@H](CC(C)C)C(=O)N[C@@H](CC(C)C)C(=O)N[C@@H](Cc1ccc2ccccc2c1)C(=O)N[C@@H](CCCCN)C(=O)N[C@@H](CC(C)C)C(=O)N[C@@H](CCCCN)C(=O)N[C@@H](Cc1ccc2ccccc2c1)C(=O)N[C@@H](CCCCN)C(=O)N[C@@H](CCCCN)C(N)=O [LV-47] (Ac-KKLL[2Nal]KLK[2Nal]KK-NH2) | >1000 | 2 (≈ 1.28 µM) | – | –
CC(=O)N[C@@H](CCCNC(=N)N)C(=O)N[C@@H](CCCCN)C(=O)N[C@@H](CC(C)C)C(=O)N[C@@H](CC(C)C)C(=O)N[C@@H](Cc1ccc2ccccc2c1)C(=O)N[C@@H](CCCCN)C(=O)N[C@@H](CC(C)C)C(=O)N[C@@H](CCCCN)C(=O)N[C@@H](Cc1ccc2ccccc2c1)C(=O)N[C@@H](CCCCN)C(=O)N[C@@H](CCCNC(=N)N)C(N)=O [LV-48] (Ac-RKLL[2Nal]KLK[2Nal]KR-NH2) | >1000 | 4 (≈ 2.47 µM) | – | –
Ac-RKLLFRLKFRK-NH2 [LV-32] | >1000 | 4 | – | –
CC(=O)N[C@@H](CCCNC(=N)N)C(=O)N[C@@H](CCCCN)C(=O)N[C@@H](C)C(=O)N[C@@H](C)C(=O)N[C@@H](Cc1ccc2ccccc2c1)C(=O)N[C@@H](CCCNC(=N)N)C(=O)N[C@@H](C)C(=O)N[C@@H](CCCCN)C(=O)N[C@@H](Cc1ccc2ccccc2c1)C(=O)N[C@@H](CCCNC(=N)N)C(=O)N[C@@H](CCCCN)C(N)=O [LV-45] (Ac-RKAA[2Nal]RAK[2Nal]RK-NH2) | >1000 | 2 (≈ 1.32 µM) | – | –
C[C@H]1COc2c(N3CCN(C)CC3)c(F)cc3c(=O)c(C(=O)O)cn1c23 [Levofloxacin, reference compound] | – | – | – | Number of mice that died on each day after infection: day 4 [2]: 2 Mouse; Number of mice that died on each day after infection: day 5 [2]: 2 Mouse; Number of mice that died on each day after infection: day 6 [2]: 1 Mouse; Number of mice that died on each day after infection: day 7 [2]: 1 Mouse; Number of mice that died on each day after infection: day 8 [2]: 1 Mouse; Average survival times (Days) ([2]; observed for 14 d): 8.1* Days; Number of mice that died on each day after infection: day 1 [3]: 3 Mouse; Number of mice that died on each day after infection: day 2 [3]: 1 Mouse; Number of mice that died on each day after infection: day 3 [3]: 1 Mouse; Number of mice that died on each day after infection: day 4 [3]: 1 Mouse; Number of mice that died on each day after infection: day 5 [3]: 1 Mouse; Average survival times (Days) ([3]; observed for 14 d): 5.9* Days; MIC ([1]; Staphylococcus aureus (NRS 384), read-out: MIC against Staphylococcus aureus (NRS 384)): 1 µg/mL (≈ 2.77 µM)
Ac-RKLLXRLKXRK-PEG200 [LV-56] (Ac-RKLL[2Nal]RLK[2Nal]RK-PEG200) [polyethylene glycol 200 conjugated to C-terminal; X=3-(2-naphthyl)-alanine] | – | – | 4 | –
